≈ marks a conversion by molar mass, not a printed value. Where “and” joins values, the source holds several entries; their conditions need not be identical. Equal entries are not always repeated. Where two headings read alike, the source gives them in different places.
What was measured:
[1] = Quantitative 1H NMR, DMSO-d6 1% DCM (self-association); assay type: physicochemical; settings: 112 mM, 298 K, proportion NMR silent
From the text: Initially, quantitative (Q) ^1H NMR spectroscopy experiments were undertaken in DMSO-d6 1% DCM, using the DCM as an internal standard to identify the presence of either low or high order SSA self-associated aggregates. Here, low-order SSA self-associated aggregates are defined as those directly observable using traditional solution state ^1H NMR spectroscopy such as the formation of hydrogen bonded anionic dimers. To determine the presence of low or high-order SSA aggregates, signals corresponding to the anionic or cationic component of the SSA are integrated against those of the internal DCM standard.

[2] = 1H NMR DOSY, DMSO-d6 0.5% H2O; assay type: physicochemical; settings: 298 K; for dH (nm), hydrodynamic diameter, anionic component: 1H NMR DOSY, DMSO-d6 0.5% H2O, 112 mM; for Hydrodynamic diameter (nm) Cationic component: DMSO-d6/0.5 % H2O
[3] = 1H NMR dilution study, self-association constants (Bindfit v0.5); assay type: physicochemical; settings: 298 K; for Kdim, CoEK model / Ke, CoEK model / Ke, EK model / ρ, CoEK model: DMSO-d6/0.5 % H2O; for Kdim / Kdim (M^-1): equal K/dimerization model, DMSO-d6 0.5% H2O
Description: This enables the quantification of parameters such as SSA anion dimerization constant which we have shown to correlate with critical aggregation concentration (CAC) values obtained from aqueous solutions of that same SSA.[30]
Figure S40 – Graph illustrating the 1H NMR down-field change in chemical shift of urea NH
resonances with increasing concentration of 9 in DMSO-d6/0.5 % H2O (298 K).
Self-association constant calculation: values were calculated from data gathered from both
NH’s and fitted to the Cooperative Equal K (CoEK) and Equal K/ dimerization binding models.
Equal K/Dimerization model:
Table S8- The self-association constants (Ke and Kdim) calculated for 3, 5, 7 and 9 in DMSO-d6/
0.5 % H2O solution at 298 K. Constants were obtained for the EK and CoEK models by fitting
1H NMR self-association data to Bindfit v0.5.
EK model (M-1) CoEK model (M-1)
Compound Ke Error Kdim Error Ke Error Kdim Error ⍴ Error
(± %) (± %) (± %) (± %) (± %)
(1 picture or pasted object on this page, not shown here)

[4] = Quantitative 1H NMR, D2O 5% EtOH (self-association); assay type: physicochemical; settings: 5.56 mM, 298 K, proportion NMR silent
From the text: However, when supplied as a 1 : 1 enantiomeric mixture, although the trend in increased incorporation of 7 + 9 over 3 + 5 into the higher order aggregate structure was retained from previous observations in polar organic solvents, the total proportion of SSA incorporated into these higher order structures was approximately 20% lower (from ≈ 50% to ≈ 30%) for the 1 : 1 enantiomeric mixture of 3 + 5 over the homogenous solution of those same SSAs.

[5] = Surface tension (pendant drop) / CAC determination, H2O 5% EtOH; assay type: physicochemical; settings: for Surface tension (mN m^-1): H2O 5% EtOH, at limit of SSA solubility = 5.56 mM; for CAC: H2O/5 % EtOH, above the limit of solubility
From the text: Here, the CAC is defined as the concentration at which any additional SSA added to a solution will result in the production of high-order self-associated species. […] To determine CAC, we used the pendant drop method to elucidate the surface tension of H2O 5% EtOH solutions of 1, 3, 5, 7, 9, and 1 : 1 SSA enantiomeric mixtures at 291 K (Table 2).

S. aureus ATCC 9144 = test: MIC assay; assay type: cell-based, Staphylococcus aureus; settings: Staphylococcus aureus
Description: (§1) Next generation SSAs 3, 5, 7, and 9 were specifically designed to increase the activity of SSAs against both drug susceptible and resistant S. aureus and ovarian cancer cells. […] These strains include: (i) USA300, a common clinically relevant, methicillin resistant strain;[47] […]
(§2) Section S3: Biological methods […]
(§3) Preparation of bacterial plates : Sterile TSB agar plates were streaked using the desired […]
(§4) Preparation of inoculum: An initial culture was made up by inoculating TSB (5 mL) with 3 single colonies of the desired bacteria under sterile conditions and incubated at 37 °C overnight. The optical density at 600 nm (OD 600) was adjusted using sterile distilled H 2O (dH2O) to equal ~1 x 10^6 bacteria/mL.
(§5) Preparation of 96 -well microplate : A solution of each compound in H2O/5 % EtOH was made […]
(§6) The compound solution (200 […]
(§7) µL) was added to and diluted 50:50 down the plate. The bacterial suspension (100 µL) was dispensed into each well under sterile conditions. […]

S. aureus NCTC 13616 = test: MIC assay; assay type: cell-based, Staphylococcus aureus; settings: Staphylococcus aureus
Description: as §1, §2, §3, §4, §5, §6, §7

S. aureus 1199B = test: microbe, parasite or virus in culture; assay type: cell-based, Staphylococcus aureus; settings: Staphylococcus aureus, 1199B
Description: as §1, §2, §3, §4, §5, §6, §7

E. Faecalis NCTC 775 = test: MIC assay; assay type: cell-based, Enterococcus faecalis; settings: Enterococcus faecalis, NCTC775, lowest concentration with no visible growth
Description: as §2
Preparation of bacterial plates : Sterile TSB agar plates were streaked using the desired bacteria [Staphylococcus aureus (9144, 13616, USA 300 and 1199B ), Enterococcus faecalis (NCTC 775 and 12201 ) and Enterococcus faecium (NCTC 12204)] and incubated at 37 °C […]
as §4, §5
. The compound solution (200
[…]. The bacterial suspension (100 µL) was dispensed into each well under sterile conditions. The plates were sealed using parafilm and incubated at 37 °C for 20 hours, after which the OD 600 was measured.

[6] = system: Galleria mellonella larvae; test: G. mellonella toxicity assay; assay type: in vivo; settings: out of 10; 10 µL of 5 mM in H2O/EtOH 19:1, 37 °C
Description: Finally, we gauged the toxicity of SSAs 1, 3, 5, 7, and 9 as either homogenous solutions or heterogenous (1 : 1) enantiomeric mixtures towards multicellular organisms which have an intrinsic immune system.[66] Here, Galleria mellonella larvae were injected with 10 µL of SSA (5 mM) in a distilled H2O/EtOH 19 : 1 solution and then incubated at 37 °C for a maximum of five days and the number of surviving larvae recorded each day. […]. […]
G. mellonella treatment assay: G. mellonella larvae were purchased from Livefood UK Ltd.
(Rooks Bridge, UK) and maintained on wood chips in the dark at 15 °C until use. Galleria
larvae were injected with 10 µL of compound in H2O/5 % EtOH, incubated at 37 °C for 5 days
and the deaths counted. Groups of 10 Galleria were injected per compound. […]

[7] = ATCC9144, 15 h, total molecular concentration, after 900 min, read-out: MIC ATCC 9144
[8] = ATCC9144, lowest concentration with no visible growth, read-out: MIC (mM) S. aureus 9144
[9] = NCTC13616, 15 h, total molecular concentration, after 900 min, read-out: MIC NCTC 13616
[10] = NCTC13616, lowest concentration with no visible growth, read-out: MIC (mM) S. aureus 13616
[11] = 15 h, read-out: MIC 1199B, total molecular concentration, after 900 min
[12] = read-out: MIC (mM) S. aureus 1199B, lowest concentration with no visible growth

Row | SMILES | Q NMR (%) SSA anion [1] [%] | Q NMR (%) SSA cation [1] [%] | dH (nm), hydrodynamic diameter, anionic component [2] | Hydrodynamic diameter (nm) Cationic component [2] [nm] | Kdim, CoEK model [3] [M⁻¹] | Ke, CoEK model [3] [M⁻¹] | Ke, EK model [3] [M⁻¹] | ρ, CoEK model [3] | Kdim [3] [M⁻¹] | Kdim (M^-1) [3] | Q NMR (%) SSA anion [4] [%] | Q NMR (%) SSA cation [4] [%] | Surface tension (mN m^-1) [5] | CAC [5] [mM] | MIC (S. aureus ATCC 9144; [7]) [mM] | MIC (S. aureus ATCC 9144; [8]) [mM] | MIC (S. aureus NCTC 13616; [9]) [mM] | MIC (S. aureus NCTC 13616; [10]) [mM] | MIC (S. aureus 1199B; [11]) [mM] | MIC (S. aureus 1199B; [12]) [mM] | also measured
1 | O=C(Nc1ccc(C(F)(F)F)cc1)N[C@@H](Cc1ccccc1)C(=O)O [SSA 7] | 0 | 0 | 1.70 nm and 1.7 nm | 1.27 | 10.58 | 21.17 | 55.52 | 2.86 | 27.76 | 28 (±2.1%) M^−1 | 51 | 48 | 39.83 mN m^−1 and 39.83 ^c mN m^−1 | > 5.56 | 0.087 (≈ 30.7 µg/mL) | 0.087 (≈ 30.7 µg/mL) | 0.087 (≈ 30.7 µg/mL) | 0.087 (≈ 30.7 µg/mL) | 0.174 (≈ 61.3 µg/mL) | 0.174 (≈ 61.3 µg/mL) | MIC (E. Faecalis NCTC 775): > 2.78 mM; Galleria moth larvae survived Day 1 [6]: 10; Galleria moth larvae survived Day 2 [6]: 4; Galleria moth larvae survived Day 3 [6]: 4; Galleria moth larvae survived Day 4 [6]: 4; Galleria moth larvae survived Day 5 [6]: 4
2 | O=C(Nc1ccc(C(F)(F)F)cc1)N[C@H](Cc1ccccc1)C(=O)O [SSA 9] | 0 | 0 | 1.67 nm and 1.7 nm | 1.24 | 8.92 | 17.84 | 45.90 | 2.62 | 22.95 | 23 (±2.5%) M^−1 | 58 | 53 | 39.64 mN m^−1 and 39.64 ^c mN m^−1 | > 5.56 | 0.174 (≈ 61.3 µg/mL) | 0.174 (≈ 61.3 µg/mL) | 0.087 (≈ 30.7 µg/mL) | 0.087 (≈ 30.7 µg/mL) | 0.174 (≈ 61.3 µg/mL) | 0.174 (≈ 61.3 µg/mL) | MIC (E. Faecalis NCTC 775): 2.78 mM (≈ 979 µg/mL); Galleria moth larvae survived Day 1 [6]: 9; Galleria moth larvae survived Day 2 [6]: 9; Galleria moth larvae survived Day 3 [6]: 9; Galleria moth larvae survived Day 4 [6]: 7; Galleria moth larvae survived Day 5 [6]: 5

— paper PMC12973313 (Chemical Science, 2026)
